This note sets out measurements from ChEMBL document CHEMBL1154437, “Pyrimido[1,2-a]quinoxaline 6-oxide and phenazine 5,10-dioxide derivatives and related compounds as growth inhibitors of Trypanosoma cruzi” (Eur J Med Chem, 2008).

In the first assay the test system is Trypanosoma cruzi. In words: Antitrypanosomal activity against Trypanosoma cruzi Tulahuen 2 epimastigotes at 25 uM. The assay is classed as functional. To be noted: read-out: GI.
As for `C[N+]1=C2C(c3ccc([N+](=O)[O-])cc3)=[N+]([O-])c3ccccc3N2CCC1`, the inhibition of growth at 25 µM is 20%.

Turning to `[O-][n+]1c2ccccc2[n+]([O-])c2cc(O)ccc21`, the inhibition of growth at 25 µM amounted to 0%.

Turning to `[O-][N+]1=C(Cc2ccccc2)C2=NCCCN2c2ccccc21`, the inhibition of growth at 25 µM is 13%. As for `COc1ccc(C2=[N+]([O-])c3ccccc3N3CCC[N+](C)=C23)cc1`, the inhibition of growth at 25 µM came out at 9%. Still for that read-out and setting: under `c1ccc(C2=Nc3ccccc3N3CCCN=C23)cc1` stands 29%; under `COc1ccc(C2=[N+]([O-])c3ccccc3N3CCCN=C23)cc1`, 36%; under `COc1ccc(C2=[N+]([O-])c3ccccc3N3CC(C)(C)CN=C23)cc1`, 13%. The same measure, in the same setting: under `[O-][N+]1=C(c2ccccc2)C2=NCCCN2c2ccccc21` stands 36%. In the case of `O=[N+]([O-])c1ccc(C2=[N+]([O-])c3ccccc3N3CCCN=C23)cc1`, the inhibition of growth at 25 µM was 9%. Same read-out and setting: the value for `CC1=[N+]([O-])c2ccccc2N2CCCN=C12` was 22%; that for `[O-][N+]1=C(c2ccc(Cl)cc2)C2=NCCCN2c2ccccc21` was 14%. With `C[N+]1=C2C(c3ccccc3)=[N+]([O-])c3ccccc3N2CCC1`, the inhibition of growth at 25 µM is 20%. Same read-out and setting: the value for `O=[N+]([O-])c1ccccc1C1=[N+]([O-])c2ccccc2N2CCCN=C12` was 12%; that for `[O-][N+]1=C(c2ccccc2Cl)C2=NCCCN2c2ccccc21` was 14%.

Another assay concerns Trypanosoma cruzi. The assay is described as follows: Antitrypanosomal activity against Trypanosoma cruzi CL Brener epimastigotes at 25 uM. The assay is classed as functional. The following applies: read-out: GI.
Turning to `[O-][n+]1c2ccccc2[n+]([O-])c2cc(O)ccc21`, the inhibition of growth at 25 µM was found to be 14%.

The next assay deals with Trypanosoma cruzi. In words: Antitrypanosomal activity against Trypanosoma cruzi Y epimastigotes at 25 uM. It is filed as functional. To be noted: read-out: GI.
As to `[O-][n+]1c2ccccc2[n+]([O-])c2cc(O)ccc21`, the inhibition of growth at 25 µM is 0%.
